Patent publication US12391660B2, “Heteroaromatic acetamide derivative, and preparation and use thereof” (Hangzhou Westan Pharmaceutical Technology Co., Ltd, priority 2019, dated 2025)

The molecules below were run against human TRPA1 (Homo sapiens (Human), UniProt O75762) (assay: FLIPR assay of inhibitory activity on human TRPA1 (calcium ion flux fluorescence)). Conditions: HEK293 cells stably expressing human TRPA1.
human TRPA1, sequence (O75762 whole entry): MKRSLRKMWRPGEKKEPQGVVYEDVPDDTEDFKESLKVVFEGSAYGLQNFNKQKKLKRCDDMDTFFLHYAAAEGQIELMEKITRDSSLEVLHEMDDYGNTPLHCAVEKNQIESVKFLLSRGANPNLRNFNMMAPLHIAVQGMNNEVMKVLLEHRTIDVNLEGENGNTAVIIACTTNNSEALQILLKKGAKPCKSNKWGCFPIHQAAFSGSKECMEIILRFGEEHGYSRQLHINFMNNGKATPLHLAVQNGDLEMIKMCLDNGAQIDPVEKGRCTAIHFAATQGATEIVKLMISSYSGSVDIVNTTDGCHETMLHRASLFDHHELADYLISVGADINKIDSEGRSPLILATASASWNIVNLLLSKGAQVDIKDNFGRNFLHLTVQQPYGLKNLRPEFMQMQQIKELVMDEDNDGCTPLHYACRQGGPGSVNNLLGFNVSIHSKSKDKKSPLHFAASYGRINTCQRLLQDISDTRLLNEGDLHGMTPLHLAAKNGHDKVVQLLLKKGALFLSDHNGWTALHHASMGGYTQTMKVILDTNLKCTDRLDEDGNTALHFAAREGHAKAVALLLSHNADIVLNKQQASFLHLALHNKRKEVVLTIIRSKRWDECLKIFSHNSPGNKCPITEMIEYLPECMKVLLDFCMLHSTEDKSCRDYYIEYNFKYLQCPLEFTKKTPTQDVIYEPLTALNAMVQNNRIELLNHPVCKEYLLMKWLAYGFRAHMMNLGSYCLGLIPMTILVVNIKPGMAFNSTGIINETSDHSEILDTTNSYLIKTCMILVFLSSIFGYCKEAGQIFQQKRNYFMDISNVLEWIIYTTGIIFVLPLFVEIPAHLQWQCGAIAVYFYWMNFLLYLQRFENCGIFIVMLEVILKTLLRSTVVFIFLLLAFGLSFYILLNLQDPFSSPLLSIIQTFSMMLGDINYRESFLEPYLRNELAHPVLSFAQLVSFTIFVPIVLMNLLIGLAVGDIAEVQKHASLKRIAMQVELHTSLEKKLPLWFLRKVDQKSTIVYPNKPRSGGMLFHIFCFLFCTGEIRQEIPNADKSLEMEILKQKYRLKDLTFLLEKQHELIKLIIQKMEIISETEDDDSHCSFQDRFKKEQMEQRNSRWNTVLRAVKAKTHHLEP
Assay type: cell-based
Method: 1. FLIPR Assay of Inhibitory Activity on Human TRPA1
A calcium ion flux fluorescence method (FLIPR assay) was adopted to measure the inhibitory activity of compounds on human TRPA1 channel. The literature reports of Lee and Chen et al. may be referred to for the method [Lee et al. Br J Pharmacol 2008, 153 (8): 1739-1749] [Chen et al. Pain 2011, 152(5):1165-72].
A HEK293 recombinant cell strain stably expressing human TRPA1 (Creative Biogene, NY) was cultured in DMEM (Thermo Fisher Scientific, Shanghai) medium (containing 10% calf serum, 5 μg/ml Blasticidin and 400 ug/ml G418). The incubator was under a condition of 37° C. and air humidity with 5% CO2.
TRPA1 cells were seeded in a 96-well analysis plate at a density of 75,000 cells per well (100 ul/well), and cultured overnight in an incubator at 37° C. and 5% CO2. On the second day, incubation was continued overnight under the same condition to induce the expression of TRPA1 after the culture medium in each well was poured out and a fresh supplement with the same culture medium containing 0.1 μg/ml Tetracycline was added. The further next day, the culture medium was pour out, a DMEM culture solution (also containing 2.5 mM Probenicid) containing 5 μM Fluo-4 AM (Molecular Probes) was added to each well, and incubation was conducted at 37° C. for 1 hour.
The compound was dissolved in 100% DMSO to prepare a 30 mM stock solution which was stored at −20° C. On the day of use, the compound stock solution was thawed at room temperature. Each compound was subjected to 1:5 serial dilution using DMSO medium at a starting concentration of 30 μM with 9 concentration points on a 96-well plate. Each compound was diluted in duplicate for testing. Ruthenium Red was used as the positive control compound and the same dilution was carried out at a starting concentration of 3 μM.
The cell analysis plate was placed in an FLIPR instrument […], and the compound in the compound plate was added to the corresponding hole on the cell analysis plate (First addition) via an automatic program, and the calcium ion fluorescence signal was recorded to determine whether the compound had agonistic activity. After 10 minutes, CaCl2 (Second addition) was added a final concentration of 3 mM to each well to stimulate intracellular calcium flux signals. Ca^++-dependent fluorescence signal was monitored continuously at 538 nm wavelength to analyze the inhibitory activity of the compounds.
The data was collected and analyzed using a FLIPR program. The fluorescence peak value was used to evaluate the inhibitory (or agonistic) activity of the compounds at each concentration. EXCEL and PRISM programs were used to calculate the IC50 value of the compounds.
With N#Cc1ccc(NC2(C(=O)N3CCN(c4ccc(OC(F)(F)F)cc4)CC3)CCCC2)cc1 [Compound 5] the IC50 was 129 nM. In the case of N#Cc1ccc(NC2(C(=O)N3CCN(c4ccc(C(F)(F)F)cn4)CC3)CCCC2)cc1 [Compound 10, 4-((1-(4-(5-(trifluoromethyl)pyridin-2-yl)piperazine-1-carbonyl)cyclopentyl)amino)benzonitrile], the IC50 is reported as 32 nM. O=C(N1CCN(c2ccc(C(F)(F)F)nn2)CC1)C1(Oc2ccc([N+](=O)[O-])cc2)CCCC1 [Compound 53, 4-((1-(4-(6-(trifluoromethyl)pyridazin-3-yl)piperazine-1-carbonyl)cyclopentyl)oxy)nitro benzene] was tested, and the IC50 was 862 nM. With N#Cc1ccc(NC2(C(=O)N3CCN(c4ccccc4OC(F)(F)F)CC3)CCCC2)cc1 [Compound 4, 4-((1-(4-(2-(trifluoromethoxy)phenyl)piperazine-1-carbonyl)cyclopentyl)amino)benzo-nitrile] the IC50 was 152 nM. N#Cc1ccc(OC2(C(=O)N3CCN(c4ccc(C(F)(F)F)nn4)CC3)CCCC2)cc1 [Compound 52, 4-((1-(4-(6-(trifluoromethyl)pyridazin-3-yl)piperazine-1-carbonyl)cyclopentyl)oxy)ben zonitrile] was tested, and the IC50 was 465 nM. With CC(C)(C)N1CCN(C(=O)C2Cc3cc(C#N)ccc3N2)CC1 (centres unmarked) [Compound 77, 2-(4-(tert-butyl)piperazine-1-carbonyl)-5-cyanoindoline] the IC50 was 91 nM. C#Cc1ccc(NC2(C(=O)N3CCN(c4cccc(C(F)(F)F)n4)CC3)CCCC2)cc1 [Compound 27, 4-((1-(4-(6-(trifluoromethyl)pyridin-2-yl)piperazine-1-carbonyl)cyclopentyl)amino)phenylacetylene] gave an IC50 of 567 nM. With CC(C)CC1CCN(C(=O)C2(Nc3ccc(C#N)cc3)CCCC2)CC1 [Compound 32, 4-((1-(4-(isobutyl)piperidine-1-carbonyl)cyclopentyl)amino)benzonitrile] the IC50 was 543 nM. CC(C)(C)C1CCN(C(=O)C2(Nc3nc(C#N)co3)CCCC2)CC1 [Compound 41, 2-((1-(4-(tert-butyl)piperidine-1-carbonyl)cyclopentyl)amino) oxazole-4-carbonitrile] gave an IC50 of 3070 nM. With N#Cc1ccc(NC2(C(=O)N3CCN(c4cccc(C(F)(F)F)c4)CC3)CCCC2)cc1 [Compound 2, 4-((1-(4-(3-(trifluoromethyl)phenyl)piperazine-1-carbonyl)cyclopentyl)amino)benzo-nitrile] the IC50 was 105 nM. Work on N#Cc1ccc(OC2(C(=O)N3CCN(c4cccc(C(F)(F)F)n4)CC3)CCC2)cc1 [Compound 58, 4-((1-(4-(6-(trifluoromethyl)pyridin-2-yl)piperazine-1-carbonyl)cyclobutyl)oxy)benzo nitrile] yielded an IC50 of 620 nM. Molecule N#Cc1ccc(NC2(C(=O)N3CCC(C4CCCCC4)CC3)CCCC2)cc1 [Compound 35, 4-((1-(4-(cyclohexyl)piperidine-1-carbonyl)cyclopentyl)amino)benzonitrile] has an IC50 of 85 nM. N#Cc1ccc(OC2(C(=O)N3CCN(c4cccc(C(F)(F)F)n4)CC3)CCCC2)cc1 [Compound 47, 4-((1-(4-(6-(trifluoromethyl)pyridin-2-yl)piperazine-1-carbonyl)cyclopentyl)oxy)benzonitrile] gave an IC50 of 38 nM. Work on CC(C)(C)C1CCN(C(=O)C(Nc2ccc(C#N)cc2)C(C)(C)C)CC1 (centres unmarked) [Compound 43, 4-((1-(4-(tert-butyl)piperidine-1-carbonyl)tert-butyl)amino) benzonitrile] yielded an IC50 of 91 nM. Molecule N#Cc1ccc(NC2(C(=O)N3CCN(c4ccc(C(F)(F)F)nn4)CC3)CCCC2)cc1Cl [Compound 22, 2-chloro-4-((1-(4-(6-(trifluoromethyl)pyridazin-3-yl)piperazine-1-carbonyl)cyclopentyl)amino)benzonitrile] has an IC50 of 765 nM. N#Cc1ccc(OC2(C(=O)N3CC4CCC3CN4c3cccc(C(F)(F)F)n3)CCCC2)cc1 (centres unmarked) [Compound 55, 4-((1-(5-(6-(trifluoromethyl)pyridin-2-yl)-2,5-diazabicyclo [2.2.2]octane-2-carbonyl)cyclopentyl)oxy)benzonitrile] was tested, and the IC50 was 91 nM. With Cn1ccc(N2CCN(C(=O)C3(Nc4ccc(C#N)cc4)CCCC3)CC2)n1 [Compound 26, 4-((1-(4-(1-methyl-1H-pyrazol-3-yl)piperazine-1-carbonyl)cyclopentyl)amino)benzonitrile] the IC50 was 2830 nM. Work on N#Cc1ccc(OC2(C(=O)N3CCN(c4ccc(C(F)(F)F)cc4)CC3)CCCC2)cc1 [Compound 49] yielded an IC50 of 325 nM. N#Cc1ccc(NC2(C(=O)N3CCN(c4ccccc4C(F)(F)F)CC3)CCCC2)cc1 [Compound 3, 4-((1-(4-(2-(trifluoromethyl)phenyl)piperazine-1-carbonyl)cyclopentyl)amino)benzo-nitrile] was tested, and the IC50 was 1580 nM. N#Cc1ccc2c(c1)CC(C(=O)N1CCN(c3cccc(C(F)(F)F)n3)CC1)N2 (centres unmarked) [Compound 68, 2-(4-(6-(trifluoromethyl)pyridin-2-yl)piperazine-1-carbonyl)-5-cyanoindoline] showed an IC50 of 112 nM. CC(C)(C)C1CCN(C(=O)C2(Nc3ccc(Cl)cc3)CCCC2)CC1 [Compound 46, 4-((1-(4-(tert-butyl)piperidine-1-carbonyl)cyclopentyl)amino) chlorobenzene] was tested, and the IC50 was 108 nM. CC(C)(C)C1CCN(C(=O)C2(Nc3ccc(C(F)(F)F)cc3)CCCC2)CC1 [Compound 45] gave an IC50 of 72 nM. N#Cc1ccc(NC2(C(=O)N3CCN(CC4CCCC4)CC3)CCCC2)cc1 [Compound 30, 4-((1-(4-(cyclopentanemethyl)piperazine-1-carbonyl)cyclopentyl)amino)benzonitrile] gave an IC50 of 54 nM. Molecule O=C(C1Cc2cc(Cl)ccc2O1)N1CCN(c2cccc(C(F)(F)F)n2)CC1 (centres unmarked) [Compound 74, 2-(4-(6-(trifluoromethyl)pyridin-2-yl)piperazine-1-carbonyl)-2,3-2H-5-chlorobenzofuran] has an IC50 of 116 nM. CC(C)(C)C1CCN(C(=O)C2(Nc3ccc(C#N)cc3)CC2)CC1 [Compound 38, 4-((1-(4-(tert-butyl)piperidine-1-carbonyl)cyclopropyl)amino)benzonitrile] was tested, and the IC50 was 10200 nM. Molecule N#Cc1ccc(NC2(C(=O)N3CC4CCC3CN4c3cccc(C(F)(F)F)n3)CCCC2)cc1 (centres unmarked) [Compound 29, 4-((1-(5-(6-(trifluoromethyl)pyridin-2-yl)-2,5-diazabicyclo[2.2.2]octane-2-carbonyl)cyclopentyl)amino)benzonitrile] has an IC50 of 26 nM. For CC(C)(C)C1CCN(C(=O)C2(Nc3ccc(C#N)cc3)CCC2)CC1 [Compound 37, 4-((1-(4-(tert-butyl)piperidine-1-carbonyl)cyclobutyl)amino) benzonitrile], the IC50 was 5210 nM. For N#Cc1ccc(NC2(C(=O)N3CCC(C4CCCC4)CC3)CCCC2)cc1 [Compound 33, 4-((1-(4-(cyclopentyl)piperidine-1-carbonyl)cyclopentyl)amino)benzonitrile], the IC50 was 92 nM. In the case of CC(C)(C)C(Nc1ccc(C#N)cc1)C(=O)N1CCN(c2cccc(C(F)(F)F)n2)CC1 (centres unmarked) [Compound 14], the IC50 is reported as 87 nM. Work on CC(C)(C)C1CCN(C(=O)C2Cc3cc(C#N)ccc3O2)CC1 (centres unmarked) [Compound 79, 2-(4-(tert-butyl)piperidine-1-carbonyl)-2,3-2H-5-cyanoben-zofuran] yielded an IC50 of 82 nM. Work on Cn1ccc2cc(SC3(C(=O)N4CCC(C(C)(C)C)CC4)CCCC3)ccc21 [Compound 67, 5-((1-(4-(tert-butyl)piperidine-1-carbonyl)cyclopentyl)sulfanyl)-1-methyl-1H-indole] yielded an IC50 of 3780 nM. CN(C)C(=O)c1ccc(N2CCN(C(=O)C3(Nc4ccc(C#N)cc4)CCCC3)CC2)nc1 [Compound 16, 6-(4-(1-((4-cyano-phenyl)amino)cyclopentane-1-carbonyl)piperazine-1-yl)N, N-dimethylnicotinamide] showed an IC50 of 8920 nM. In the case of CC(C)(C)C1CCN(C(=O)C2(Nc3nc(C#N)cs3)CCCC2)CC1 [Compound 39, 2-((1-(4-(tert-butyl)piperidine-1-carbonyl)cyclopentyl)amino) thiazole-4-carbonitrile], the IC50 is reported as 1080 nM. Cn1cc(C#N)cc1OC1(C(=O)N2CCC(C(C)(C)C)CC2)CCCC1 [Compound 65, 5-((1-(4-(tert-butyl)piperidine-1-carbonyl)cyclopentyl)oxy)-1-methyl-1H-pyrrole-3-car bonitrile] was tested, and the IC50 was 1080 nM. For CC(C)(C)N1CCN(C(=O)C2(Oc3ccc(C(F)(F)F)cc3)CCCC2)CC1 [Compound 64, 4-((1-(4-(tert-butyl)piperazine-1-carbonyl)cyclopentyl)oxy) trifluoromethylbenzene], the IC50 was 552 nM.
